System: PDC 899932-113-R3-J6 complex spheroid viability
Experiment: Anticancer human tumor 899932-113-R3-J6-PDC patient-derived melanoma cell line growth inhibition [RAS]
Conditions: for IC50: curve of first compound; for viability, T/C: stronger effect = lower value
Outline: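 Tumour cells grown as complex spheroids with HUVEC endothelial cells and mesenchymal stem cells, treated with RAS pathway inhibitor combinations. Each agent spans half-log steps from near clinical Cmax, or 10 microM where Cmax is unknown.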

[1] = second compound 0.000949 µM, first compound 0.0316 µM
[2] = second compound 0.000949 µM, first compound 0.1 µM
[3] = second compound 0.000949 µM, first compound 0.316 µM
[4] = second compound 0.000949 µM, first compound 1 µM
[5] = second compound 0.003 µM, first compound 0.0316 µM
[6] = second compound 0.003 µM, first compound 0.1 µM
[7] = second compound 0.003 µM, first compound 0.316 µM
[8] = second compound 0.003 µM, first compound 1 µM
[9] = second compound 0.00949 µM, first compound 0.0316 µM
[10] = second compound 0.00949 µM, first compound 0.1 µM
[11] = second compound 0.00949 µM, first compound 0.316 µM
[12] = second compound 0.00949 µM, first compound 1 µM
[13] = second compound 0.03 µM, first compound 0.0316 µM
[14] = second compound 0.03 µM, first compound 0.1 µM
[15] = second compound 0.03 µM, first compound 0.316 µM
[16] = second compound 0.03 µM, first compound 1 µM
[17] = second compound 0.0949 µM, first compound 0.0316 µM
[18] = second compound 0.0949 µM, first compound 0.1 µM
[19] = second compound 0.0949 µM, first compound 0.316 µM
[20] = second compound 0.0949 µM, first compound 1 µM
[21] = second compound 0.3 µM, first compound 0.0316 µM
[22] = second compound 0.3 µM, first compound 0.1 µM
[23] = second compound 0.3 µM, first compound 0.316 µM
[24] = second compound 0.3 µM, first compound 1 µM
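Wherever viability, T/C is given: spheroids exposed to agents for seven days before readout; 100% = DMSO vehicle control wells.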

Structure (SMILES): CCN1CCN(Cc2ccc(Nc3ncc(F)c(-c4cc(F)c5nc(C)n(C(C)C)c5c4)n3)nc2)CC1 + CCn1c(-c2cc(N3CCN(C)CC3)cnc2C(C)OC)c2c3cc(ccc31)-c1csc(n1)CC(NC(=O)C1CC1C)C(=O)N1CCCC(N1)C(=O)OCC(C)(C)C2
- IC50 (second compound 0.000949 µM): 220 nM
- IC50 (second compound 0.003 µM): < 3.16 nM
- IC50 (second compound 0.00949 µM): < 3.16 nM
- IC50 (second compound 0.03 µM): < 3.16 nM
- IC50 (second compound 0.0949 µM): < 3.16 nM
- IC50 (second compound 0.3 µM): < 3.16 nM
- viability, T/C (second compound 0.000949 µM, first compound 0.00316 µM): 80.5%
- viability, T/C (second compound 0.000949 µM, first compound 0.01 µM): 75.5%
- viability, T/C [1]: 75.2%
- viability, T/C [2]: 63.3%
- viability, T/C [3]: 43.7%
- viability, T/C [4]: 18.3%
- viability, T/C (second compound 0.003 µM, first compound 0.00316 µM): 38.1%
- viability, T/C (second compound 0.003 µM, first compound 0.01 µM): 39.2%
- viability, T/C [5]: 33.3%
- viability, T/C [6]: 30.1%
- viability, T/C [7]: 23.8%
- viability, T/C [8]: 10.2%
- viability, T/C (second compound 0.00949 µM, first compound 0.00316 µM): 4.63%
- viability, T/C (second compound 0.00949 µM, first compound 0.01 µM): 4.32%
- viability, T/C [9]: 4.31%
- viability, T/C [10]: 3.66%
- viability, T/C [11]: 5.16%
- viability, T/C [12]: 6.09%
- viability, T/C (second compound 0.03 µM, first compound 0.00316 µM): 3.02%
- viability, T/C (second compound 0.03 µM, first compound 0.01 µM): 2.66%
- viability, T/C [13]: 2.79%
- viability, T/C [14]: 2.48%
- viability, T/C [15]: 3.21%
- viability, T/C [16]: 2.94%
- viability, T/C (second compound 0.0949 µM, first compound 0.00316 µM): 2.31%
- viability, T/C (second compound 0.0949 µM, first compound 0.01 µM): 2.1%
- viability, T/C [17]: 2.15%
- viability, T/C [18]: 2.33%
- viability, T/C [19]: 2.24%
- viability, T/C [20]: 2.47%
- viability, T/C (second compound 0.3 µM, first compound 0.00316 µM): 1.97%
- viability, T/C (second compound 0.3 µM, first compound 0.01 µM): 2.12%
- viability, T/C [21]: 2.2%
- viability, T/C [22]: 2.05%
- viability, T/C [23]: 1.76%
- viability, T/C [24]: 2.01%

Structure (SMILES): C[C@@H](NC(=O)c1ncnc(N)c1Cl)c1ncc(C(=O)Nc2cc(C(F)(F)F)c(Cl)cn2)s1 + CCn1c(-c2cc(N3CCN(C)CC3)cnc2C(C)OC)c2c3cc(ccc31)-c1csc(n1)CC(NC(=O)C1CC1C)C(=O)N1CCCC(N1)C(=O)OCC(C)(C)C2
- IC50 (second compound 0.000949 µM): 5630 nM
- IC50 (second compound 0.003 µM): 2600 nM
- IC50 (second compound 0.00949 µM): < 31.6 nM
- IC50 (second compound 0.03 µM): < 31.6 nM
- IC50 (second compound 0.0949 µM): < 31.6 nM
- IC50 (second compound 0.3 µM): < 31.6 nM
- viability, T/C [1]: 104%
- viability, T/C [2]: 113%
- viability, T/C [3]: 124%
- viability, T/C [4]: 127%
- viability, T/C (second compound 0.000949 µM, first compound 3.16 µM): 82%
- viability, T/C (second compound 0.000949 µM, first compound 10 µM): 18.2%
- viability, T/C [5]: 66.6%
- viability, T/C [6]: 76.1%
- viability, T/C [7]: 83.8%
- viability, T/C [8]: 82.1%
- viability, T/C (second compound 0.003 µM, first compound 3.16 µM): 44.4%
- viability, T/C (second compound 0.003 µM, first compound 10 µM): 12%
- viability, T/C [9]: 8.34%
- viability, T/C [10]: 12.9%
- viability, T/C [11]: 15.3%
- viability, T/C [12]: 13.6%
- viability, T/C (second compound 0.00949 µM, first compound 3.16 µM): 9.29%
- viability, T/C (second compound 0.00949 µM, first compound 10 µM): 4.48%
- viability, T/C [13]: 3.38%
- viability, T/C [14]: 2.96%
- viability, T/C [15]: 2.78%
- viability, T/C [16]: 2.66%
- viability, T/C (second compound 0.03 µM, first compound 3.16 µM): 2.41%
- viability, T/C (second compound 0.03 µM, first compound 10 µM): 2.96%
- viability, T/C [17]: 2.75%
- viability, T/C [18]: 2.95%
- viability, T/C [19]: 2.73%
- viability, T/C [20]: 2.82%
- viability, T/C (second compound 0.0949 µM, first compound 3.16 µM): 2.56%
- viability, T/C (second compound 0.0949 µM, first compound 10 µM): 2.32%
- viability, T/C [21]: 2.53%
- viability, T/C [22]: 2.03%
- viability, T/C [23]: 2.73%
- viability, T/C [24]: 2.35%
- viability, T/C (second compound 0.3 µM, first compound 3.16 µM): 3.08%
- viability, T/C (second compound 0.3 µM, first compound 10 µM): 2.77%
